Experimental data taken from publication PMC7979765, “trans-Translation inhibitors bind to a novel site on the ribosome and clear Neisseria gonorrhoeae in vivo” (Nature Communications, 2021).
Values after ≈ are worked out from the molar mass of the structure shown. Values joined by “and” are separate entries in the source; they are usually repeats but may differ in a detail not shown here. Equal values may be shown once.

Test system: Neisseria gonorrhoeae
Test: MIC, microbroth dilution, G77L medium
Format: cell-based

## O=C(Nc1nnc(-c2ccc(F)cc2)o1)N1CCc2ccccc2C1 [MBX-4132]
Neisseria gonorrhoeae, strain CDC-0187, CIP, PEN, TET
  MIC: 0.34 µg/mL (≈ 1 µM)
Neisseria gonorrhoeae, strain CDC-0187, replicates 1-3
  MIC: 0.338 µg/mL (≈ 0.999 µM)
Neisseria gonorrhoeae, strain CDC-0188, CIP, PEN
  MIC: 0.17 µg/mL (≈ 0.502 µM)
Neisseria gonorrhoeae, strain CDC-0188, replicates 1-3
  MIC: 0.169 µg/mL (≈ 0.499 µM)
Neisseria gonorrhoeae, strain CDC-0189, CIP, PEN, TET
  MIC: 0.13 µg/mL (≈ 0.384 µM)
Neisseria gonorrhoeae, strain CDC-0189, replicates 1-3
  MIC: 0.169 µg/mL (≈ 0.499 µM)
Neisseria gonorrhoeae, strain CDC-0190, CIP, PEN, TET
  MIC: 0.17 µg/mL (≈ 0.502 µM)
Neisseria gonorrhoeae, strain CDC-0190, replicates 1-3
  MIC: 0.169 µg/mL (≈ 0.499 µM)
Neisseria gonorrhoeae, strain HO41, PEN, TET, CFM, CRO, LVX
  MIC: 0.17 µg/mL (≈ 0.502 µM)
Neisseria gonorrhoeae, strain HO41, replicates 1-3
  MIC: 0.169 µg/mL (≈ 0.499 µM)
Neisseria gonorrhoeae, strain MMX 6744, broth dilution by Micromyx
  MIC: 0.27 µg/mL (≈ 0.798 µM)
Neisseria gonorrhoeae, strain MMX 6746, CIP, by Micromyx
  MIC: 0.14 µg/mL (≈ 0.414 µM)
Neisseria gonorrhoeae, strain MMX 6752, TET, by Micromyx
  MIC: 0.27 µg/mL (≈ 0.798 µM)
Neisseria gonorrhoeae, strain MMX 6753, by Micromyx
  MIC: 0.14 µg/mL (≈ 0.414 µM)
Neisseria gonorrhoeae, strain MMX 6757, by Micromyx
  MIC: 0.07 µg/mL (≈ 0.207 µM)
Neisseria gonorrhoeae, strain MMX 6758, by Micromyx
  MIC: 0.27 µg/mL (≈ 0.798 µM)
Neisseria gonorrhoeae, strain MMX 6762, by Micromyx
  MIC: 0.27 µg/mL (≈ 0.798 µM)
Neisseria gonorrhoeae, strain MMX 6767, by Micromyx
  MIC: 0.14 µg/mL (≈ 0.414 µM)
Neisseria gonorrhoeae, strain MMX 6771, TET, by Micromyx
  MIC: 0.14 µg/mL (≈ 0.414 µM)
Neisseria gonorrhoeae, strain MMX 6793, CIP, by Micromyx
  MIC: 0.14 µg/mL (≈ 0.414 µM)
Neisseria gonorrhoeae, strain MMX 6797, CIP, TET, by Micromyx
  MIC: 0.14 µg/mL (≈ 0.414 µM)
Neisseria gonorrhoeae, strain MMX 6803, CIP, by Micromyx
  MIC: 0.27 µg/mL (≈ 0.798 µM)
Neisseria gonorrhoeae, strain MMX 6812, CIP, by Micromyx
  MIC: 0.27 µg/mL (≈ 0.798 µM)
Neisseria gonorrhoeae, strain MMX 6818, CIP, by Micromyx
  MIC: 0.27 µg/mL (≈ 0.798 µM)
Neisseria gonorrhoeae, strain MMX 6819, CIP, by Micromyx
  MIC: 0.14 µg/mL (≈ 0.414 µM)
Neisseria gonorrhoeae, strain MMX 6879, by Micromyx
  MIC: 0.14 µg/mL (≈ 0.414 µM)
Neisseria gonorrhoeae, strain MMX 6921, CIP, by Micromyx
  MIC: 0.53 µg/mL (≈ 1.57 µM)
Neisseria gonorrhoeae, strain MMX 6922, CIP, by Micromyx
  MIC: 0.53 µg/mL (≈ 1.57 µM)
Neisseria gonorrhoeae, strain MMX 6983, CIP, by Micromyx
  MIC: 0.53 µg/mL (≈ 1.57 µM)
Neisseria gonorrhoeae, strain MMX 6989, by Micromyx
  MIC: 0.14 µg/mL (≈ 0.414 µM)
Neisseria gonorrhoeae, strain MMX 6990, CIP, by Micromyx
  MIC: 0.14 µg/mL (≈ 0.414 µM)
Neisseria gonorrhoeae, strain MMX 6992, by Micromyx
  MIC: 0.14 µg/mL (≈ 0.414 µM)
Neisseria gonorrhoeae, strain MMX 6996, by Micromyx
  MIC: 0.27 µg/mL (≈ 0.798 µM)
Neisseria gonorrhoeae, strain MMX 6998, CIP, by Micromyx
  MIC: 0.53 µg/mL (≈ 1.57 µM)
Neisseria gonorrhoeae, strain MMX 7002, CIP, by Micromyx
  MIC: 0.27 µg/mL (≈ 0.798 µM)
Neisseria gonorrhoeae, strain MMX 7005, by Micromyx
  MIC: 0.03 µg/mL (≈ 0.0887 µM)
Neisseria gonorrhoeae, strain WHO F
  MIC: 0.06 µg/mL (≈ 0.177 µM)
Neisseria gonorrhoeae, strain WHO F, replicates 1-3
  MIC: 0.066 µg/mL (≈ 0.195 µM)
Neisseria gonorrhoeae, strain WHO G, PEN, TET
  MIC: 0.13 µg/mL (≈ 0.384 µM)
Neisseria gonorrhoeae, strain WHO G, replicates 1-3
  MIC: 0.132 µg/mL (≈ 0.39 µM)
Neisseria gonorrhoeae, strain WHO K, CIP, PEN, TET
  MIC: 0.26 µg/mL (≈ 0.768 µM)
Neisseria gonorrhoeae, strain WHO K, replicates 1-3
  MIC: 0.264 µg/mL (≈ 0.78 µM)
Neisseria gonorrhoeae, strain WHO L, CIP, PEN, TET
  MIC: 0.26 µg/mL (≈ 0.768 µM)
Neisseria gonorrhoeae, strain WHO L, replicates 1-3
  MIC: 0.264 µg/mL (≈ 0.78 µM)
Neisseria gonorrhoeae, strain WHO M, CIP, PEN, TET
  MIC: 0.13 µg/mL (≈ 0.384 µM)
Neisseria gonorrhoeae, strain WHO M, replicates 1-3
  MIC: 0.132 µg/mL (≈ 0.39 µM)
Neisseria gonorrhoeae, strain WHO N, CIP, PEN, TET
  MIC: 0.26 µg/mL (≈ 0.768 µM)
Neisseria gonorrhoeae, strain WHO N, replicates 1-3
  MIC: 0.264 µg/mL (≈ 0.78 µM)
Neisseria gonorrhoeae, strain WHO O, PEN, TET
  MIC: 0.13 µg/mL (≈ 0.384 µM)
Neisseria gonorrhoeae, strain WHO O, replicates 1-3
  MIC: 0.132 µg/mL (≈ 0.39 µM)
Neisseria gonorrhoeae, strain WHO P, PEN, TET
  MIC: 0.33 µg/mL (≈ 0.975 µM)
Neisseria gonorrhoeae, strain WHO U, PEN, TET
  MIC: 0.13 µg/mL (≈ 0.384 µM)
Neisseria gonorrhoeae, strain WHO U, replicates 1-3
  MIC: 0.132 µg/mL (≈ 0.39 µM)
Neisseria gonorrhoeae, strain WHO V, AZM, CIP, PEN, TET
  MIC: 0.26 µg/mL (≈ 0.768 µM)
Neisseria gonorrhoeae, strain WHO V, replicates 1-3
  MIC: 0.264 µg/mL (≈ 0.78 µM)
Neisseria gonorrhoeae, strain WHO W, CIP, PEN, TET
  MIC: 0.13 µg/mL (≈ 0.384 µM)
Neisseria gonorrhoeae, strain WHO W, replicates 1-3
  MIC: 0.132 µg/mL (≈ 0.39 µM)
Neisseria gonorrhoeae, strain WHO X, CIP, PEN, TET
  MIC: 0.21 µg/mL (≈ 0.621 µM)
Neisseria gonorrhoeae, strain WHO X, replicates 1-3
  MIC: 0.132 µg/mL (≈ 0.39 µM)
Neisseria gonorrhoeae, strain WHO Y, CIP, PEN, TET
  MIC: 0.21 µg/mL (≈ 0.621 µM)
Neisseria gonorrhoeae, strain WHO Y, replicates 1-3
  MIC: 0.264 µg/mL (≈ 0.78 µM)
Neisseria gonorrhoeae, strain WHO Z, CIP, PEN, TET
  MIC: 0.26 µg/mL (≈ 0.768 µM)
Neisseria gonorrhoeae, strain WHO Z, replicates 1-3
  MIC: 0.264 µg/mL (≈ 0.78 µM)
Strain ATCC 49226, replicates 1-3
  MIC: 0.169 µg/mL and 0.085 µg/mL
Strain ATCC 700719, replicates 1-3
  MIC: 0.169 µg/mL and 0.338 µg/mL
Strain ATCC 700825, replicates 1-3
  MIC: 0.042 µg/mL (≈ 0.124 µM)
Strain BAA-1846, replicates 1-3
  MIC: 0.042 µg/mL (≈ 0.124 µM)
Strain CDC-0165, replicates 1-3
  MIC: 0.677 µg/mL (≈ 2 µM)
Strain CDC-0166, replicates 1-3
  MIC: 0.169 µg/mL (≈ 0.499 µM)
Strain CDC-0167, replicates 1-3
  MIC: 0.169 µg/mL and 0.085 µg/mL
Strain CDC-0169, replicates 1-3
  MIC: 0.169 µg/mL (≈ 0.499 µM)
Strain CDC-0170, replicates 1-3
  MIC: 0.169 µg/mL (≈ 0.499 µM)
Strain CDC-0171, replicates 1-3
  MIC: 0.169 µg/mL (≈ 0.499 µM)
Strain CDC-0172, replicates 1-3
  MIC: 0.169 µg/mL (≈ 0.499 µM)
Strain CDC-0173, replicates 1-3
  MIC: 0.169 µg/mL (≈ 0.499 µM)
Strain CDC-0174, replicates 1-3
  MIC: 0.169 µg/mL (≈ 0.499 µM)
Strain CDC-0175, replicates 1-3
  MIC: 0.085 µg/mL (≈ 0.251 µM)
Strain CDC-0176, replicates 1-3
  MIC: 0.338 µg/mL (≈ 0.999 µM)
Strain CDC-0177, replicates 1-3
  MIC: 0.169 µg/mL (≈ 0.499 µM)
Strain CDC-0178, replicates 1-3
  MIC: 0.338 µg/mL (≈ 0.999 µM)
Strain CDC-0179, replicates 1-3
  MIC: 0.085 µg/mL (≈ 0.251 µM)
Strain CDC-0180, replicates 1-3
  MIC: 0.169 µg/mL (≈ 0.499 µM)
Strain CDC-0181, replicates 1-3
  MIC: 0.169 µg/mL (≈ 0.499 µM)
Strain CDC-0182, replicates 1-3
  MIC: 0.169 µg/mL (≈ 0.499 µM)
Strain CDC-0183, replicates 1-3
  MIC: 0.338 µg/mL (≈ 0.999 µM)
Strain CDC-0184, replicates 1-3
  MIC: 0.169 µg/mL (≈ 0.499 µM)
Strain CDC-0185, replicates 1-3
  MIC: 0.338 µg/mL and 0.169 µg/mL
Strain CDC-0186, replicates 1-3
  MIC: 0.169 µg/mL (≈ 0.499 µM)
Strain CDC-0187, replicates 1-3
  MIC: 0.338 µg/mL (≈ 0.999 µM)
Strain CDC-0188, replicates 1-3
  MIC: 0.169 µg/mL (≈ 0.499 µM)
Strain CDC-0189, replicates 1-3
  MIC: 0.085 µg/mL and 0.169 µg/mL
Strain CDC-0190, replicates 1-3
  MIC: 0.169 µg/mL (≈ 0.499 µM)
Strain HO41, replicates 1-3
  MIC: 0.169 µg/mL (≈ 0.499 µM)
Strain WHO F, replicates 1-3
  MIC: 0.066 µg/mL (≈ 0.195 µM)
Strain WHO G, replicates 1-3
  MIC: 0.132 µg/mL (≈ 0.39 µM)
Strain WHO K, replicates 1-3
  MIC: 0.264 µg/mL (≈ 0.78 µM)
Strain WHO L, replicates 1-3
  MIC: 0.264 µg/mL (≈ 0.78 µM)
Strain WHO M, replicates 1-3
  MIC: 0.132 µg/mL (≈ 0.39 µM)
Strain WHO N, replicates 1-3
  MIC: 0.264 µg/mL (≈ 0.78 µM)
Strain WHO O, replicates 1-3
  MIC: 0.132 µg/mL (≈ 0.39 µM)
Strain WHO P, replicates 1-3
  MIC: 0.529 µg/ml and 0.264 µg/ml (2×)
Strain WHO U, replicates 1-3
  MIC: 0.132 µg/mL (≈ 0.39 µM)
Strain WHO V, replicates 1-3
  MIC: 0.264 µg/mL (≈ 0.78 µM)
Strain WHO W, replicates 1-3
  MIC: 0.132 µg/mL (≈ 0.39 µM)
Strain WHO X, replicates 1-3
  MIC: 0.264 µg/mL (≈ 0.78 µM)
Strain WHO Y, replicates 1-3
  MIC: 0.132 µg/mL and 0.264 µg/mL
Strain WHO Z, replicates 1-3
  MIC: 0.264 µg/mL (≈ 0.78 µM)
